Data: patent US10052320B2, “Substituted quinoxalines as FGFR kinase inhibitors” (ASTEX THERAPEUTICS LIMITED, priority 2011, dated 2018)
Where two headings read alike, the source gives them in different places.

Experiments:
[1] = molecular target: Ba/F3-FGFR4-transfected cells (Homo sapiens, UniProt P22455); test: Ba/F3-FGFR4 cellular proliferation assay, Alamar Blue; assay type: cell-based
Protocol: Ba/F3-FGFR4 (Cellular Proliferation Assay)
(§1) In a 384 well plate, 100 nl of compound dilution in DMSO was sprayed before adding 50 μl cell culture medium (phenol red free RPMI-1640, 10% FBS, 2 mM L-Glutamine and 50 μg/ml Gentamycin) containing 20000 cells per well of Ba/F3-FGFR4-transfected cells. Cells were put in an incubator at 37° C. and 5% CO2. After 24 hours, 10 μl of Alamar Blue solution (0.5 mM K3Fe(CN)6, 0.5 mM KaFe(CN)6, 0.15 mM Resazurin and 100 mM Phosphate Buffer) was added to the wells, incubated for 4 hours at 37° C. and 5% CO2 before RFU's (Relative Fluorescence Units) (ex. 540 nm., em. 590 nm.) were measured in a flurorescence plate reader.

[2] = molecular target: Ba/F3-KDR-transfected cells (Homo sapiens, UniProt P35968); test: Ba/F3-KDR (minus IL3) cellular proliferation assay, Alamar Blue; assay type: cell-based
Ba/F3-KDR-transfected cells, sequence (P35968 whole entry, change not shown): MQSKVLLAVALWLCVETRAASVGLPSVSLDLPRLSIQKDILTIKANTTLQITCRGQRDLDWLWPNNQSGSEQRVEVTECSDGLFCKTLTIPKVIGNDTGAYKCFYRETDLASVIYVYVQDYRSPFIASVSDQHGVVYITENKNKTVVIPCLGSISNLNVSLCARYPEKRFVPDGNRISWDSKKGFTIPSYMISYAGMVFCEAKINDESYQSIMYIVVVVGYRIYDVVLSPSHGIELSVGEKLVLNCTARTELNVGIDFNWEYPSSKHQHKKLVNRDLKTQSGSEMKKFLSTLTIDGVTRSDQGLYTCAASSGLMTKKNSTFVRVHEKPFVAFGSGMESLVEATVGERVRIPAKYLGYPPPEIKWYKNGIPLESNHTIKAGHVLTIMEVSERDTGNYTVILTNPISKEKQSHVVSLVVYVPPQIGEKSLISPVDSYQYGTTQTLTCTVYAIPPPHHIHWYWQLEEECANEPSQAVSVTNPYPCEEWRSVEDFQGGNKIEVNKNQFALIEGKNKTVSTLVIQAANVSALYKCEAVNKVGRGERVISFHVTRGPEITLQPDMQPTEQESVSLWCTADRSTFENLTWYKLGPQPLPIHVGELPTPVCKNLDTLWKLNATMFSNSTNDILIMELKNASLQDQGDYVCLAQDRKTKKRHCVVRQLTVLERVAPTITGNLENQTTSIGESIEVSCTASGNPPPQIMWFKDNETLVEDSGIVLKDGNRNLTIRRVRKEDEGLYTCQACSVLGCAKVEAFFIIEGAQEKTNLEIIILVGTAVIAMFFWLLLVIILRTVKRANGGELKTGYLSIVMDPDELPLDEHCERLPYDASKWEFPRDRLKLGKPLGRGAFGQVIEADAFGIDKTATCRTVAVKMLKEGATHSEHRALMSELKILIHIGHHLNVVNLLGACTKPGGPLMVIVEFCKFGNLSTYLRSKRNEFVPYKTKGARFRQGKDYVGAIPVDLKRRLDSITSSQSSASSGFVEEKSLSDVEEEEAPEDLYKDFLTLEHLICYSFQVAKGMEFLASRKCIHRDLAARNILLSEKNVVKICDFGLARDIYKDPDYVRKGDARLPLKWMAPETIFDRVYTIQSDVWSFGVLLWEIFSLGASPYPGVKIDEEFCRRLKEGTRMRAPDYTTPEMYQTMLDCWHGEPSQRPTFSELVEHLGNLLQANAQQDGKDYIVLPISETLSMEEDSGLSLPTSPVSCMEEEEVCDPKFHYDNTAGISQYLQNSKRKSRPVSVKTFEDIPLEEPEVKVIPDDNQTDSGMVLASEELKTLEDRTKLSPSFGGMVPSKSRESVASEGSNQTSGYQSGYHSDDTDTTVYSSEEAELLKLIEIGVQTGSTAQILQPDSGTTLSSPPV
Protocol: Ba/F3-KDR (Minus IL3 or Plus IL3) (Cellular Proliferation Assay)
as §1, with “Ba/F3-KDR-transfected” for “Ba/F3-FGFR4-transfected”
As a counterscreen the same experiment was performed in the presence of 10 ng/ml murine IL3.
as §1, with “a 96” for “a 384”, “plate, 180” for “plate, 100 nl of compound dilution in DMSO was sprayed before adding 50”, “containing 10000” for “containing 20000”, “of Ba/F3-KDR-transfected cells were pipette and 20 μl of compound dilution in DMSO was added.” for “of Ba/F3-FGFR4-transfected cells.”, “hours, 40” for “hours, 10”, “CO2” for “CO2 before”

[3] = molecular target: FGFR3 (h) (Homo sapiens, UniProt P22607); test: FGFR3 (enzymatic assay), TR-FRET; assay type: biochemical; settings: read-out: FGFR 3 pIC50 (converted)
FGFR3 (h), sequence (P22607 23-806): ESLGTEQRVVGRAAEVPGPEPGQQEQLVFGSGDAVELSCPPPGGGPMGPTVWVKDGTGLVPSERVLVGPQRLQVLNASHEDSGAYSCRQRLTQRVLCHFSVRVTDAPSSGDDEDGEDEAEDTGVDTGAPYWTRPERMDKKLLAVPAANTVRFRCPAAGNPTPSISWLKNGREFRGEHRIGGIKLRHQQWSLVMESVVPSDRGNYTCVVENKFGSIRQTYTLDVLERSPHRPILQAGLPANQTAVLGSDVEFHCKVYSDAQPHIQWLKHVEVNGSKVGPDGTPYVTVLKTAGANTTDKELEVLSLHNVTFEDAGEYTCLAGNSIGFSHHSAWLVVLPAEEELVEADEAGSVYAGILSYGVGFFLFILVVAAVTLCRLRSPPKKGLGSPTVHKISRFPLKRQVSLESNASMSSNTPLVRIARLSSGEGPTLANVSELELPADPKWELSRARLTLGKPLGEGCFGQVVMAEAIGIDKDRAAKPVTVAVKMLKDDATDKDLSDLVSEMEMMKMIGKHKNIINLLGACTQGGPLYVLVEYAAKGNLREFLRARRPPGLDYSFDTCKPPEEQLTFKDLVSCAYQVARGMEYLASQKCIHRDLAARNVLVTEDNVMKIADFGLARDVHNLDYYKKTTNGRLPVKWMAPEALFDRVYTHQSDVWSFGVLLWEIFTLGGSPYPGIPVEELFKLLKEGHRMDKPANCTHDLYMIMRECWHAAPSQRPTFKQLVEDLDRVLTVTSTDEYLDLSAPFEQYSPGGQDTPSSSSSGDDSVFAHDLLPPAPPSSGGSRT
Protocol: In a final reaction volume of 30 μL, FGFR3 (h) (40 ng/ml) was incubated with 50 mM HEPES pH 7.5, 6 mM MnCl2, 1 mM DTT, 0.1 mM Na3VO4, 0.01% Triton-X-100, 500 nM Btn-Flt3 and 25 μM ATP in the presence of compound (1% DMSO final). […] Time-Resolved Fluorescence Resonance Energy Transfer (TR-FRET) signal (ex340 nm. Em 620 nm, em 655 nm) was measured afterwards and results are expressed in RFU (Relative Fluorescence Units).

Ba/F3-FGFR4-transfected cells, sequence (P22455 whole entry, change not shown): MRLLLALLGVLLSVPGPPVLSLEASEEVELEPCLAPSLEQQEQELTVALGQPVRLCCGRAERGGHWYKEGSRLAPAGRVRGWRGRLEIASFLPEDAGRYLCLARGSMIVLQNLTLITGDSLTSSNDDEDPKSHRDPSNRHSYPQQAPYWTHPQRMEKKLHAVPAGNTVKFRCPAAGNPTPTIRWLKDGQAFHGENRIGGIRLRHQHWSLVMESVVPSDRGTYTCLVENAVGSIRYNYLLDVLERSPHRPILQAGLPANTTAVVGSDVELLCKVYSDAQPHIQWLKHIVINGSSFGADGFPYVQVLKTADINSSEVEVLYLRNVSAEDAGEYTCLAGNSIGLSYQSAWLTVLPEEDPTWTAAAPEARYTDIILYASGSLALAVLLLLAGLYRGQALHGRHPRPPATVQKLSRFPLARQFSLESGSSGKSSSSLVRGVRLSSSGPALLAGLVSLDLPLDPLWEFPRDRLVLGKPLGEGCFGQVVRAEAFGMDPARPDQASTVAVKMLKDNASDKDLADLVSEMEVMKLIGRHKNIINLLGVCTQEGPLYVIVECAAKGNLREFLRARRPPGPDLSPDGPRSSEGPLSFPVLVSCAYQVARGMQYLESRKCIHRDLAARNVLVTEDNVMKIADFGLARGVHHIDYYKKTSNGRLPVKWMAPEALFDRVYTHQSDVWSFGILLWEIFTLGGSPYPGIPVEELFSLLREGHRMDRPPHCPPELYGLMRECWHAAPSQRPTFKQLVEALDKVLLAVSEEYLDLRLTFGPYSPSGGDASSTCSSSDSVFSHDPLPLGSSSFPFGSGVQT

| Compound | BAF3-FGFR4 pIC50 [1] | BAF3-KDR (MIN IL3) 384 well pIC50 ([2]; minus IL3) | IC50 [3] [nM] | BAF3-FGFR4 pIC50 ([1]; 384 well) | BAF3-KDR (MIN IL3) 384 well pIC50 ([2]; minus IL3, 384 well) |
| --- | --- | --- | --- | --- | --- |
| COCC(O)CN(c1cc(OC)cc(OC)c1)c1ccc2ncc(-c3cccnc3)nc2c1 (single isomer, unassigned) [Compound 46] | 5.8 | <5 | 7.24 | – | – |
| COCC(O)CN(c1cc(OC)cc(OC)c1)c1ccc2ncc(-c3cccnc3)nc2c1 (single isomer, unassigned) [Compound 47] | 5.5 | <5 | 22.4 | – | – |
| COCC(CN(c1cc(OC)cc(OC)c1)c1ccc2ncc(-c3cccnc3)nc2c1)OC(C)=O (single isomer, unassigned) [Compound 52] | 5.2 | <5 | 28.8 | – | – |
| COCC(CN(c1cc(OC)cc(OC)c1)c1ccc2ncc(-c3cccnc3)nc2c1)OC(C)=O (single isomer, unassigned) [Compound 76] | 5.6 | <5 | 5.75 | – | – |
| COc1cc(OC)cc(N(CC#Cc2ncccn2)c2ccc3ncc(-c4cccnc4)nc3c2)c1 [Compound 2] | 6.9 | <5 | 56.2 | – | – |
| COc1cc(OC)cc(N(CCCNCC(F)(F)F)c2ccc3ncc(-c4ccn(C)c4)nc3c2)c1 [Compound 5] | 5.7 | 5.07 | 9.55 | – | – |
| COc1cc(OC)cc(N(CCO)c2ccc3ncc(-c4ccc(N5CCOCC5)nc4)nc3c2)c1 [Compound 19] | 6.1 | <5 | 1.95 | – | – |
| COc1cc(OC)cc(N(CC2CC2)c2ccc3ncc(C#Cc4cncn4C)nc3c2)c1 [Compound 22] | – | – | 34.7 | <5 | <5 |
| COc1cc(OC)cc(N(CCCNCC(F)(F)F)c2ccc3ncc(-c4cnc(OC)nc4)nc3c2)c1 [Compound 26] | ~5.1 | <5 | 100 | – | – |
| COc1cc(OC)cc(N(CC2CC2)c2ccc3ncc(C(=O)Nc4cncn4C)nc3c2)c1 [Compound 27] | <5 | <5 | 2630 | – | – |
| COc1cc(OC)cc(N(CC2CC2)c2ccc3ncc(NC(=O)c4ccc(F)cc4)nc3c2)c1 [Compound 28] | <5 | <5 | 1200 | – | – |
| CO/N=C(\C)c1cnc2ccc(N(CCO)c3cc(OC)cc(OC)c3)cc2n1 [Compound 29] | <5 | <5 | 38.9 | – | – |
| COc1cc(OC)cc(N(CCN2CCOCC2)c2ccc3ncc(-c4ccc(NC(=O)N5CCOCC5)nc4)nc3c2)c1 [Compound 35] | 6.0 | 5.11 | 10 | – | – |
| COc1cc(OC)cc(N(CC2CC2)c2ccc3ncc(-c4ccnc(N5CCN(C)CC5)c4)nc3c2)c1 [Compound 37] | – | – | 36.3 | 5.3 | <5 |
| COc1cc(OC)cc(N(CCO)c2ccc3ncc(-n4cnc(CO)c4)nc3c2)c1 [Compound 38] | 5.8 | <5 | 10.5 | – | – |
| COc1cc(OC)cc(N(CC2CC2)c2ccc3ncc(-c4c[nH]cn4)nc3c2)c1 [Compound 39] | <5 | <5 | 29.5 | – | – |
| COc1cc(OC)cc(N(CCCO)c2ccc3ncc(-c4ccnc(C(=O)N5CCOCC5)c4)nc3c2)c1 [Compound 43] | 6.0 | 5.07 | 3.8 | – | – |
| COc1cc(OC)cc(N(CCCNCC(=O)O)c2ccc3ncc(-c4ccnc(C(=O)NCCCCN)c4)nc3c2)c1 [Compound 44] | <5.35 | <5 | 11.2 | – | – |
| COc1cc(OC)cc(N(CC2CC2)c2ccc3ncc(N4CCN(CCO)CC4)nc3c2)c1 [Compound 49] | <5 | <5 | 126 | – | – |

| Compound | BAF3-FGFR4 pIC50 [1] | BAF3-KDR (MIN IL3) 384 well pIC50 ([2]; minus IL3) | IC50 [3] [nM] | BAF3-FGFR4 pIC50 ([1]; 384 well) | BAF3-KDR (MIN IL3) 384 well pIC50 ([2]; minus IL3, 384 well) |
| --- | --- | --- | --- | --- | --- |
| COc1cc(OC)cc(N(CCN2CCNCC2)c2ccc3ncc(-c4ccc(N)nc4)nc3c2)c1 [Compound 59] | 6.1 | 5.66 | 9.12 | – | – |
| COc1cc(OC)cc(N(CC2CC2)c2ccc3ncc(N4CCOCC4)nc3c2)c1 [Compound 63] | – | – | 138 | <5 | <5 |
| COc1cc(OC)cc(N(CC2CC2)c2ccc3ncc(N4CCN(C)CC4)nc3c2)c1 [Compound 64] | – | – | 191 | <5 | <5 |
| COc1cc(OC)cc(N(CCNC(C)C)c2ccc3ncc(N4CCC(CN)CC4)nc3c2)c1 [Compound 67] | 6.2 | 5 | 16.6 | – | – |
| COc1cc(OC)cc(N(CCN2CCN(C(C)=O)CC2)c2ccc3ncc(-c4ccc(N)nc4)nc3c2)c1 [Compound 68] | 5.7 | <5 | 33.9 | – | – |
| COc1cc(OC)cc(N(CCNC(C)C)c2ccc3ncc(-n4cnc(CO)c4)nc3c2)c1 [Compound 77] | 6.9 | 5.29 | 12 | – | – |
| COc1cc(OC)cc(N(CCN)c2ccc3ncc(-c4ccn(C)c4)nc3c2)c1 [Compound 79] | 6.7 | 5.45 | 1.86 | – | – |
| COc1cc(OC)cc(N(CCO)c2ccc3ncc(N4CCC(CN)CC4)nc3c2)c1 [Compound 84] | <5 | <5 | 40.7 | – | – |
| COc1cc(OC)cc(N(CC2CC2)c2ccc3ncc(-c4nnc(C)o4)nc3c2)c1 [Compound 85] | – | – | 191 | <5 | <5 |
| COc1cc(OC)cc(N(CC2CC2)c2ccc3ncc(-c4ccc5[nH]ccc5c4)nc3c2)c1 [Compound 86] | – | – | 417 | <5 | <5 |
| COc1cc(OC)cc(N(CC2CC2)c2ccc3ncc(-c4ccc5c(c4)OCO5)nc3c2)c1 [Compound 87] | – | – | 209 | <5 | <5.4 |
| COc1cc(OC)cc(N(CC2CC2)c2ccc3ncc(-c4cnc5[nH]ccc5c4)nc3c2)c1 [Compound 88] | – | – | 380 | <5 | <5 |
| COc1cc(OC)cc(N(CC2CC2)c2ccc3ncc(-c4ccnc(N5CCOCC5)c4)nc3c2)c1 [Compound 90] | – | – | 282 | – | – |
| COc1cc(OC)cc(N(CC2CC2)c2ccc3ncc(-c4cccc(N5CCOCC5)c4)nc3c2)c1 [Compound 92] | <5 | <5 | 263 | – | – |
| COc1cc(OC)cc(N(CC2CC2)c2ccc3ncc(C(=O)N4CCC4)nc3c2)c1 [Compound 93] | <5 | <5 | 2340 | – | – |
| COc1cc(OC)cc(N(CC2CC2)c2ccc3ncc(-n4cccn4)nc3c2)c1 [Compound 95] | <5 | <5 | 1450 | – | – |
| CNc1ccc(-c2cnc3ccc(N(CCCNCC(F)(F)F)c4cc(OC)cc(OC)c4)cc3n2)cn1 [Compound 129] | 5.4 | <5 | 52.5 | – | – |
| COc1cc(OC)cc(N(CCCO)c2ccc3ncc(-c4ccnc(C(=O)NCCCCCN)c4)nc3c2)c1 [Compound 130] | 5.0 | <5 | 11.2 | – | – |
| COc1cc(OC)cc(N(CCCNC(C)C)c2ccc3ncc(-c4ccnc(NC(=O)NC(C)C)c4)nc3c2)c1 [Compound 131] | 6.0 | 5.37 | 5.89 | – | – |
